Results reported in patent US6673937B2, “Syntheses and methods of use of new antimitotic agents” (The University of Pittsburgh, priority 2000, dated 2004).

Key:
[1] = test system: fungi; conditions: cited from earlier work
[2] = test system: Bcl-2; test: Bcl-2 phosphorylation immunoblot in MCF-7 cells; type: cell-based, human
Description: Attempts to determine the phosphorylation status of Bcl-2 in tsFT210 cells using two different antibodies were unsuccessful due to the antibodies' inability to detect mouse Bcl-2 or the lack of specificity. Therefore, phosphorylated and non-phosphorylated Bcl-2 was detected in lysates from human MCF-7 cells (American Type Culture Collection, Manassas, Va.) treated with microtubule perturbing agents. Equal amounts of protein were separated by electrophoresis on 15% SDS-PAGE followed by immunoblotting with an antihuman Bcl-2 antibody (sc-509, Santa Cruz Biotechnology). Positive antibody reactions were visualized using peroxidase-conjugated secondary antibodies (Jackson ImmunoResearch, West Grove, Pa.) and an enhanced chemiluminescence detection system (Renaissance, NEN, Boston, Mass.) according to manufacturer's instructions.
All known microtubule disrupting compounds cause hyperphosphorylation of the antiapoptotic protein Bcl-2 (Haldar S, Jena N and Croce CM (1995) Inactivation of bcl-2 by phospliorylation. Proc Natl Acad Sci USA 92:4507-4511 and Basu A and Haldar S (1998) Microtubule-damaging drugs trigger bcl2 phosphorylation-requirement of phosphorylation on both serine-70 and serine-87 residues of bcl2 protein. Intl J Oncol 13:659-664). Therefore, the phosphorylation status of Bcl-2 in cells treated with various compounds including SR-7 was examined and the results are illustrated in FIG. 29. Proteins from lysates of MCF-7 cells treated with 0.5 μM paclitaxel, 1 μM nocodozole, 1,μM vincristine and, 3 or 10 μM SR-7 were separated by electrophoresis on 15% SDS-PAGE followed by immunoblotting with an antibody to Bcl-2. The phosphorylated form of Bcl-2 (P) appeared as the upper bands and the underphosphorylated form (U) was the lower band.

[3] = test system: bovine brain tubulin; test: GTP-induced tubulin assembly (turbidity); type: biochemical
Description: Tubulin without microtubule-associated proteins was isolated from fresh bovine brains (Hamel E and Lin CM (1984). Separation of active tubulin and microtubule-associated proteins by ultracentrifugation and isolation of a component causing the formation of microtubule bundles. Biochemistry 23:4173-4184). Inhibition of assembly reactions was carried out as described previously (Verdier-Pinard P, Lai J-Y, Yoo H-D, Yu J, Marquez B, Nagle DG, Nambu M, White JD, Falck JR, Gerwick WH, Day BW and Hamel E (1998) Structure-activity analysis of the interaction of curacin A, the potent colchicine site antimitotic agent, with tubulin and effects of analogs on the growth of MCF-7 breast cancer cells. Mol Pharmacol 53:62-76.).
The inventors examined the ability of SR-7 to alter tubulin polymerization or depolymerization in vitro. FIG. 28, Panel A. Compounds (predissolved in DMSO) were preincubated with tubulin containing monosodium glutamate at 30 ° C. for 15 min. Samples were cooled to 0 ° C. and GTP was added. Samples were placed in a temperature-controlled multi-cuvette holder of a spectrophotometer held at 0 ° C. Baselines were established and temperature was rapidly raised to 30 ° C. Turbidity development in the cuvettes was measured at 350 nm. FIG. 28, Panel B. Compounds were added to the tubulin plus monosodium glutamate mixture at 0 ° C., placed in the spectrophotometer and temperature was raised to 30 ° C. Addition of 0.4 mM GTP to isolated bovine brain tubulin produced robust polymerization that began to plateau approximately 20 min after microtubule assembly commenced (Panel A).

[4] = test system: bovine brain tubulin; test: Inhibition of [3H]colchicine binding; conditions: Mean ± SEM, N = 9
Description: Using methods described previously (Verdier-Pinard P, Lai J-Y, Yoo H-D, Yu J, Marquez B, Nagle DG, Nambu M, White JD, Falck JR, Gerwick WH, Day BW and Hamel E (1998) Structure-activity analysis of the interaction of curacin A, the potent colchicine site antimitotic agent, with tubulin and effects of analogs on the growth of MCF-7 breast cancer cells. Mol Phannacol 53:62-76.). 5,μM [^3H]colchicine was incubated with either 5% DMSO vehicle or compound (5 or 50 μM) at 37° C. for 15 min with 1 μM tubulin in the presence of 1 M monosodium glutamate, 0.1 M glucose-1-phosphate, 1 mM MgCl2, 1 mM GTP and 0.5 mg/ml bovine serum albumin. The solutions were filtered through two stacks of DEAE-cellulose filters and the radioactivity in the filtrate was determined by liquid scintillation spectrometry. Each series of determinations included positive controls of 5 and 50 μM curacin A. The inventors found no evidence that SR-7 could bind to the colchicine site of tubulin. […] The inventors propose that SR-7 may act at another site such as the previously characterized vinca alkaloid site.

[5] = test system: tsFT210 cells; test: Flow cytometry, G2/M arrest in tsFT210 cells; type: cell-based, mouse; conditions: 6 hours
Description: Oncogene 18:6989-6996, Th′ng JP, Wright PS, Hamaguchi J, Lee MG, Norbury CJ, Nurse P and Bradbury EM (1990) The FT210 cell line is a mouse G2 phase mutant with a temperature-sensitive CDC2 gene product. Cell 63:313-324.). Cell proliferation was blocked at G2 phase by incubation at 39.4° C. for 17 h. The synchronized cells were then released by re-incubating at 32.0° C. and treated immediately with 0-10 μM SR-7, 1 μM nocodazole or 100 EM SC-ααδ9, respectively, to probe for G2/M arrest. […] The harvested cells were stained with a solution containing 50 μg/ml propidium iodide and 250 μg/ml RNase A. Flow cytometry analysis was conducted with a Becton Dickinson FACS Star (Franklin Lakes, N.J.). […] This G2/M retention at 4C is probably due to the extended cell cycle blockage at 39.4° C. (Osada H, Cui CB, Onose R and Hanaoka F (1997) Screening of cell cycle inhibitors from microbial metabolites by a bioassay using a mouse cdc2 mutant cell line, tsFT210. Bioorg Med Chem 5:193-203). […] SC-ααδ9 is an inhibitor of the Cdc25 family of phosphatases that controls cell cycle checkpoints (Rice RL, Rusnak JM, Yokokawa F, Yokokawa S, Messner DJ, Boynton AL, Wipf P and Lazo JS (1997) A targeted library of small molecule, tyrosine and dual specificity phosphatase inhibitors derived from a rational core design and random side chain variation. Biochemistry 36:15965-15974).

[6] = test system: Cdk1; test: Western blotting for Cdk1 phosphorylation status in tsFT210 cells; type: cell-based, mouse; conditions: 6 hours
Description: tsFT210 cells were harvested using the same procedure for cell synchronizing and drug exposure as described above for the G2/M flow cytometric analysis. The protein lysates were analyzed by Western blotting for Cdk1 as described previously (Tamura K, Southwick EC, Kerns J, Rosi K, Carr BI, Wilcox C and Lazo JS (2000) Cdc25 inhibition and cell cycle arrest by a synthetic thioalkyl vitamin K analogue. Cancer Res 60:1317-1325.). The inventors used Cdk1 isolated from human MCF-7 cells to assay for in vitro inhibition of enzyme activity because of available antibodies and convenience. Asynchronous cells grown at 37° C. in 5% CO2 in DMEM containing 10% fetal bovine serum were treated with lysis buffer and harvested as previously described (Vogt A, Wang AS, Johnson CS, Fabisiak JP, Wipf P and Lazo JS (2000) In vivo antitumor activity and induction of insulin-like growth factor-1 resistant apoptosis by SC-ααδ9. J Pharmacol Exptl Therap 292:530-537.). Cdk1 kinase activity assay was performed as previously described (Yu L, Orlandi L, Wang P, Orr MS, Senderowicz AM, Sausville EA, Silvestrini R, Watanabe N, Piwnica-Worms H, O° Connor PM (1998) UCN-01 arogates G2 arrest through a Cdc2-dependent pathway that is associated with inactivation of the WeelHu kinase and activation of the Cdc25C phosphatase. J Biol Chem 273: 33455-33464.). […] Histone H1 was separated from other proteins by SDS-PAGE and analyzed for incorporation of radioactive phosphate with a Molecular Dynamics STORM 860 Phospholmager (Sunnyvale, CA).
The major controlling molecule for G2/M transition is the cyclin dependent kinase, Cdk1, whose cellular activity is tightly regulated by phosphorylation (Pines J (1999) Four-dimensional control of the cell cycle. Nature Cell Biol 1:E73-79., Hunter T and Pines J (1994) Cyclins and cancer II: cyclin D and CDK inhibitors come of age. Cell 79:573-582). […] The protein lysates were analyzed by Western blotting for Cdk1 content and phosphorylation status as described elsewhere herein. […]

[7] = test system: tsFT210 cells; test: Flow cytometry, G1 transition in tsFT210 cells; type: cell-based, mouse; conditions: 100 μM, additional 6 hours

Oc1ccc(O)c2c1[C@H](O)[C@@H]1O[C@@H]1C21Oc2cccc3cccc(c23)O1 [Palmarumycin C12]
antifungal activity [1]: high antifungal activity

CC(=O)O[C@H]1C(=O)[C@@]2(C)[C@H]([C@H](OC(=O)c3ccccc3)[C@]3(O)C[C@H](OC(=O)[C@H](O)[C@@H](NC(=O)c4ccccc4)c4ccccc4)C(C)=C1C3(C)C)[C@]1(OC(C)=O)CO[C@@H]1C[C@@H]2O [paclitaxel]
Bcl-2 phosphorylation ([2]; 0.5 μM): caused prominent phosphorylation of Bcl-2

O=C1C=CC(=O)[C@@]23O[C@@]12C1(Oc2cccc4cccc(c24)O1)[C@@H]1O[C@@H]1[C@@H]3O [Palmarumycin C10]
antifungal activity [1]: high antifungal activity

CC[C@]1(O)C[C@H]2CN(CCc3c([nH]c4ccccc34)[C@@](C(=O)OC)(c3cc4c(cc3OC)N(C=O)[C@H]3[C@@](O)(C(=O)OC)[C@H](OC(C)=O)[C@]5(CC)C=CCN6CC[C@]43[C@@H]65)C2)C1 [vincristine]
Bcl-2 phosphorylation ([2]; 1 μM vincristine): caused prominent phosphorylation of Bcl-2

O=C1CC[C@@H](O)[C@@H]2C1=C(O)C=CC21Oc2cccc3cccc(c23)O1 [Palmarumycin CP4]
antifungal activity [1]: high antifungal activity

C=CC[C@@H](CC/C(C)=C/C=C/CC/C=C\[C@@H]1CSC([C@@H]2C[C@@H]2C)=N1)OC [curacin A]
inhibition of GTP-induced tubulin assembly ([3]; 1 μM): 50%
inhibition of GTP-induced tubulin assembly ([3]; 5 μM): completely inhibited GTP-induced tubulin assembly
Percent inhibition of [3H]colchicine binding ([4]; 5 μM compound, 5 µM): ~90%
Percent inhibition of [3H]colchicine binding ([4]; 5 μM compound, listed as Curacin A, 5 µM): 89.8 ± 0.6%
Percent inhibition of [3H]colchicine binding ([4]; 50 μM compound): 97.3 ± 3.1%

CCCCCCCCCC(=O)NC(CCC(=O)N(CCNC(=O)c1nc(-c2ccccc2)oc1-c1ccccc1)Cc1ccccc1)C(=O)O (stereo not drawn) [SC-ααδ9, 4-(benzyl-(2-[ (2,5-diphenyl-oxazole-4-carbonyl)-amino]-ethyl)-carbamoyl)-2-decanoylamino butyric acid, reference compound]
G2/M cell cycle transition ([5]; 100 μM, Panel I): G2/M inhibition
Cdk1 phosphorylation status ([6]; 100 IM, lane 8): yielded a hyperphosphorylated Cdk1
G1 transition [7]: caused a prominent G1 block

COC(=O)Nc1nc2cc(C(=O)c3cccs3)ccc2[nH]1 [nocodazole]
G2/M cell cycle transition ([5]; 1 μM): blocked cell passage through G2/M
Cdk1 phosphorylation status ([6]; 1 μM): no hyperphosphorylation of Cdk1 was seen
Bcl-2 phosphorylation ([2]; 1 μM nocodozole): caused prominent phosphorylation of Bcl-2

O=C1c2c(O)ccc(O)c2C2(Oc3cccc4cccc(c34)O2)[C@@H]2O[C@H]12 [Palmarumycin C3]
antifungal activity [1]: high antifungal activity
